Laboratory results reported in PMC6376162, “HEXIM1 Peptide Exhibits Antimicrobial Activity Against Antibiotic Resistant Bacteria Through Guidance of Cell Penetrating Peptide” (Frontiers in Microbiology, 2019).
Values after ≈ are worked out from the molar mass of the structure shown. Residues, ends and D or L forms follow the SMILES beside them.

How the values were obtained:
[1] = tested on: HaCaT human keratinocyte cell line; experiment: Viability assay for mammalian cells (CellTiter-Glo); type: cell-based; settings: overnight; for cytotoxicity against HaCat cells: 30 μM; for toxicity against HaCaT cells at the highest concentration: 100 μM
Procedure: (§1) Bacterial strains were either purchased from American Type Culture Collection (ATCC, United States) or provided by National University Hospital, Singapore. Prior to assays, all bacteria, except for Enterococcus faecalis, were grown overnight to stationary phase at 37°C in Luria Bertani (LB) broth (Novagen, Germany). The overnight cultures were 10-fold diluted in fresh cation-adjusted Mueller Hinton II broth (MHBII) (Becton Dickinson, United States) and grown for additional few hours at 37°C to obtain mid-log phase culture. E. faecalis strains were grown in M17 broth (Becton Dickenson, United States) for both overnight and mid-log phase culturing. Human keratinocyte cell line, HaCaT, was purchased from Creative Bioarray (United States) and cultured in Dulbecco’s Modified Eagle’s medium with 4.5 g/L glucose, 2 mM L-glutamine, and 10% fetal bovine serum.
HaCat cells (1 × 10^5 cells mL^−1) were seeded in a 96-well clear-bottomed white plate (Corning) in Dulbecco’s Modified Eagle’s medium with 4.5 g/L glucose, 2 mM L-glutamine, and 10% fetal bovine serum and incubated overnight at 37°C. On the following day, cells were treated with the indicated peptides at serial-diluted concentrations and incubated overnight. CellTiter-Glo reagent (Promega) was utilized to determine the cell viability based on the manufacturer’s instructions.

[2] = tested on: Staphylococcus aureus 29213; type: cell-based; settings: 29213, 20 h
Procedure: as §1
(§2) Minimum inhibition concentrations (MICs) were determined by using broth microdilution method in a 96-well microtiter plate according to guidelines of the Clinical and Laboratory Standards Institute ([CLSI, 2012]). Briefly, mid-log phase cultures were diluted with MHBII and added to wells containing serially diluted peptides to give final cell concentration of 5 × 10^5 cells ml^−1. Peptides were prepared in twofold serial dilution series to give a final concentration range from 2 to 128 μM. Cecropin P1 (CECP1) and Cap11-1-18m^2 (CapM2) treated cells were used as positive controls, while untreated cells were used as a negative control.
(§3) To further assess the potency of peptides, wells with no visible growth from MIC tests were subsequently plated on LB agar plates and incubated overnight at 37°C. […] Both MIC and MBC assays were conducted on three to five separate occasions and if results were within one doubling dilutions of each other, the highest reading was recorded for analysis.

[3] = tested on: Enterococcus faecalis SEN; type: cell-based; settings: 20 h
Procedure: as §1, §2, §3

[4] = tested on: Escherichia coli 25922; type: cell-based; settings: 25922, 20 h
Procedure: as §1, §2, §3

[5] = tested on: Escherichia coli BAA2523; type: cell-based; settings: BAA2523, 20 h
Procedure: as §1, §2, §3

[6] = tested on: Pseudomonas aeruginosa 27853; type: cell-based; settings: 27853, 20 h
Procedure: as §1, §2, §3

[7] = tested on: S. aureus 43300; type: cell-based, Staphylococcus aureus; settings: 43300, 20 h
Procedure: as §1, §2, §3

[8] = tested on: E. faecalis VRE; type: cell-based, Enterococcus faecalis; settings: 20 h
Procedure: as §1, §2, §3

[9] = tested on: mammalian cells; parameters: method as in Neo et al., 2016; settings: cited from earlier work
[10] = tested on: P. aeruginosa 544; type: cell-based, Pseudomonas aeruginosa; settings: 544, 20 h
Procedure: as §1, §2, §3

[11] = tested on: panel of antibiotic sensitive and resistant bacteria; type: cell-based; settings: 20 h
Procedure: as §1, §2, §3

CC[C@H](C)[C@H](NC(=O)[C@H](CCCCN)NC(=O)[C@@H](NC(=O)[C@H](CCC(N)=O)NC(=O)[C@@H](N)CCCNC(=N)N)[C@@H](C)CC)C(=O)N[C@@H](Cc1c[nH]c2ccccc12)C(=O)N[C@@H](Cc1ccccc1)C(=O)N[C@@H](CCC(N)=O)C(=O)N[C@@H](CC(N)=O)C(=O)N[C@@H](CCCNC(=N)N)C(=O)N[C@@H](CCCNC(=N)N)C(=O)N[C@@H](Cc1c[nH]c2ccccc12)C(=O)NCC(=O)NCC(=O)N[C@@H](CCC(N)=O)C(=O)N[C@@H](CC(C)C)C(=O)NCC(=O)N[C@@H](CCCCN)C(=O)N[C@@H](CCCCN)C(=O)N[C@@H](CCCCN)C(=O)N[C@@H](Cc1c[nH]cn1)C(=O)N[C@@H](CCCNC(=N)N)C(=O)N[C@@H](CCCNC(=N)N)C(=O)N[C@@H](CCCNC(=N)N)C(=O)N1CCC[C@H]1C(=O)N[C@@H](CO)C(=O)N[C@@H](CCCCN)C(=O)N[C@@H](CCCCN)C(=O)N[C@@H](CCCCN)C(=O)N[C@@H](CCCNC(=N)N)C(=O)N[C@@H](Cc1c[nH]cn1)C(=O)N[C@@H](Cc1c[nH]c2ccccc12)C(=O)O [Pen-BR] (H-RQIKIWFQNRRWGGQLGKKKHRRRPSKKKRHW-OH)
cytotoxicity against HaCat cells [1]: little or no cytotoxicity | toxicity against HaCaT cells at the highest concentration [1]: toxic activity | effect on HaCaT cells under lower concentrations ([1]; below 100 μM (10, 30, 50 μM)): did not cause any significant effects

CC(C)C[C@H](NC(=O)[C@@H](N)CCC(N)=O)C(=O)NCC(=O)N[C@@H](CCCCN)C(=O)N[C@@H](CCCCN)C(=O)N[C@@H](CCCCN)C(=O)N[C@@H](Cc1c[nH]cn1)C(=O)N[C@@H](CCCNC(=N)N)C(=O)N[C@@H](CCCNC(=N)N)C(=O)N[C@@H](CCCNC(=N)N)C(=O)N1CCC[C@H]1C(=O)N[C@@H](CO)C(=O)N[C@@H](CCCCN)C(=O)N[C@@H](CCCCN)C(=O)N[C@@H](CCCCN)C(=O)N[C@@H](CCCNC(=N)N)C(=O)N[C@@H](Cc1c[nH]cn1)C(=O)N[C@@H](Cc1c[nH]c2ccccc12)C(=O)O [BR] (H-QLGKKKHRRRPSKKKRHW-OH)
MBC [2]: >128 µM | MIC [2]: 128 µM (≈ 301 µg/mL) | MBC [3]: >128 µM | MIC [3]: >128 µM | MBC [4]: >128 µM | MIC [4]: >128 µM | MBC [5]: >128 µM | MIC [5]: >128 µM | MBC [6]: >128 µM | MIC [6]: >128 µM | MBC [7]: >128 µM | MBC [8]: >128 µM | MIC [8]: >128 µM | cytotoxic effects on mammalian cells [9]: failed to cause any detectable cytotoxic effects | MBC [10]: >128 µM | MIC [10]: >128 µM

CC[C@H](C)[C@H](NC(=O)CNC(=O)[C@H](CCC(=O)O)NC(=O)[C@H](CO)NC(=O)[C@@H](NC(=O)[C@H](CCCNC(=N)N)NC(=O)[C@H](CCCCN)NC(=O)[C@H](CCCCN)NC(=O)[C@H](C)NC(=O)[C@H](CO)NC(=O)[C@H](CC(N)=O)NC(=O)[C@H](CCC(=O)O)NC(=O)[C@H](CC(C)C)NC(=O)[C@H](CCCCN)NC(=O)[C@H](CCCCN)NC(=O)[C@H](C)NC(=O)[C@@H](NC(=O)[C@H](CCCCN)NC(=O)[C@H](CO)NC(=O)[C@H](CC(C)C)NC(=O)[C@H](Cc1c[nH]c2ccccc12)NC(=O)[C@@H](N)CO)[C@@H](C)O)[C@@H](C)CC)C(=O)N[C@@H](C)C(=O)N[C@H](C(=O)N[C@@H](C)C(=O)N[C@H](C(=O)N[C@@H](CCC(N)=O)C(=O)NCC(=O)NCC(=O)N1CCC[C@H]1C(=O)N[C@@H](CCCNC(=N)N)C(=O)O)[C@@H](C)CC)[C@@H](C)CC [CECP1, Cecropin P1, reference compound] (H-SWLSKTAKKLENSAKKRISEGIAIAIQGGPR-OH)
MBC [2]: >128 µM | MIC [2]: >128 µM | MBC [3]: >128 µM | MIC [3]: >128 µM | MBC [4]: 4 µM (≈ 13.4 µg/mL) | MIC [4]: 4 µM (≈ 13.4 µg/mL) | MBC [5]: 64 µM (≈ 214 µg/mL) | MIC [5]: 64 µM (≈ 214 µg/mL) | MBC [6]: 32 µM (≈ 107 µg/mL) | MIC [6]: 16 µM (≈ 53.4 µg/mL) | MBC [7]: >128 µM | MIC [7]: >128 µM | MBC [8]: >128 µM | MIC [8]: >128 µM | MBC [10]: 32 µM (≈ 107 µg/mL) | MIC [10]: 16 µM (≈ 53.4 µg/mL)

CC(C)C[C@H](NC(=O)[C@@H](N)CCC(N)=O)C(=O)NCC(=O)N[C@@H](CCCNC(=N)N)C(=O)N[C@@H](CCCNC(=N)N)C(=O)N[C@@H](CCCNC(=N)N)C(=O)N[C@@H](Cc1c[nH]cn1)C(=O)N[C@@H](CCCNC(=N)N)C(=O)N[C@@H](CCCNC(=N)N)C(=O)N[C@@H](CCCNC(=N)N)C(=O)N1CCC[C@H]1C(=O)N[C@@H](CO)C(=O)N[C@@H](CCCNC(=N)N)C(=O)N[C@@H](CCCNC(=N)N)C(=O)N[C@@H](CCCNC(=N)N)C(=O)N[C@@H](CCCNC(=N)N)C(=O)N[C@@H](Cc1c[nH]cn1)C(=O)N[C@@H](Cc1c[nH]c2ccccc12)C(=O)O [BR-RRR12] (H-QLGRRRHRRRPSRRRRHW-OH)
MBC [2]: >128 µM | MIC [2]: 32 µM (≈ 80.7 µg/mL) | MBC [3]: >128 µM | MIC [3]: 32 µM (≈ 80.7 µg/mL) | MICs (range over inhibited strains) [11]: 16 to 64 µM | MBC [4]: 64 µM (≈ 161 µg/mL) | MIC [4]: 64 µM (≈ 161 µg/mL) | MBC [5]: >128 µM | MIC [5]: >128 µM | MBC [6]: >128 µM | MIC [6]: >128 µM | MIC [7]: 16 µM (≈ 40.4 µg/mL) | MBC [8]: >128 µM | MIC [8]: 16 µM (≈ 40.4 µg/mL) | MBC [10]: >128 µM

CC[C@H](C)[C@H](NC(=O)[C@H](CC(C)C)NC(=O)[C@H](CCCCN)NC(=O)[C@H](CC(C)C)NC(=O)[C@H](CC(C)C)NC(=O)[C@H](CCCCN)NC(=O)[C@H](CCCNC(=N)N)NC(=O)[C@H](Cc1ccccc1)NC(=O)[C@H](CC(C)C)NC(=O)[C@H](CCCCN)NC(=O)[C@H](CCCNC(=N)N)NC(=O)[C@H](CC(C)C)NC(=O)[C@@H](N)CCCCN)C(=O)N[C@@H](CCCNC(=N)N)C(=O)N[C@@H](CCCCN)C(=O)N[C@@H](CC(C)C)C(=O)N[C@@H](CC(C)C)C(=O)N[C@@H](CCCNC(=N)N)C(=O)O [CapM2, Cap11-1-18m^2, reference compound] (H-KLRKLFRKLLKLIRKLLR-OH)
MBC [2]: 32 µM (≈ 74.8 µg/mL) | MIC [2]: 16 µM (≈ 37.4 µg/mL) | MBC [3]: 16 µM (≈ 37.4 µg/mL) | MIC [3]: 16 µM (≈ 37.4 µg/mL) | MBC [4]: 32 µM (≈ 74.8 µg/mL) | MIC [4]: 16 µM (≈ 37.4 µg/mL) | MBC [5]: 64 µM (≈ 150 µg/mL) | MIC [5]: 32 µM (≈ 74.8 µg/mL) | MBC [6]: 32 µM (≈ 74.8 µg/mL) | MIC [6]: 16 µM (≈ 37.4 µg/mL) | MBC [7]: 16 µM (≈ 37.4 µg/mL) | MIC [7]: 16 µM (≈ 37.4 µg/mL) | MBC [8]: 16 µM (≈ 37.4 µg/mL) | MIC [8]: 16 µM (≈ 37.4 µg/mL) | MBC [10]: 32 µM (≈ 74.8 µg/mL) | MIC [10]: 16 µM (≈ 37.4 µg/mL)

CC[C@H](C)[C@H](NC(=O)[C@H](CCCCN)NC(=O)[C@@H](NC(=O)[C@H](CCC(N)=O)NC(=O)[C@@H](N)CCCNC(=N)N)[C@@H](C)CC)C(=O)N[C@@H](Cc1c[nH]c2ccccc12)C(=O)N[C@@H](Cc1ccccc1)C(=O)N[C@@H](CCC(N)=O)C(=O)N[C@@H](CC(N)=O)C(=O)N[C@@H](CCCNC(=N)N)C(=O)N[C@@H](CCCNC(=N)N)C(=O)N[C@@H](Cc1c[nH]c2ccccc12)C(=O)NCC(=O)NCC(=O)N[C@@H](CCC(N)=O)C(=O)N[C@@H](CC(C)C)C(=O)NCC(=O)N[C@@H](CCCNC(=N)N)C(=O)N[C@@H](CCCNC(=N)N)C(=O)N[C@@H](CCCNC(=N)N)C(=O)N[C@@H](Cc1c[nH]cn1)C(=O)N[C@@H](CCCNC(=N)N)C(=O)N[C@@H](CCCNC(=N)N)C(=O)N[C@@H](CCCNC(=N)N)C(=O)N1CCC[C@H]1C(=O)N[C@@H](CO)C(=O)N[C@@H](CCCNC(=N)N)C(=O)N[C@@H](CCCNC(=N)N)C(=O)N[C@@H](CCCNC(=N)N)C(=O)N[C@@H](CCCNC(=N)N)C(=O)N[C@@H](Cc1c[nH]cn1)C(=O)N[C@@H](Cc1c[nH]c2ccccc12)C(=O)O [Pen-RRR] (H-RQIKIWFQNRRWGGQLGRRRHRRRPSRRRRHW-OH)
cytotoxicity against HaCat cells [1]: little or no cytotoxicity | toxicity against HaCaT cells at the highest concentration [1]: toxic activity
